In PubChem BioAssay (NCI):
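Compound exposure: 48 hours, 5 concentrations, 96-well plates. TGI is the concentration that stops growth completely.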

What was measured:
Assay in all cases: growth of human tumour cells (NCI), 48 h
A549 NSCLC = system: A549 NSCLC
U251 CNS = system: U251 CNS
DU-145 prostate = system: DU-145 prostate
SNB-19 CNS = system: SNB-19 CNS
LOX IMVI melanoma = system: LOX IMVI melanoma
T-47D breast = system: T-47D breast
HCT-15 colon = system: HCT-15 colon
NCI-H460 lung = system: NCI-H460 lung
SK-MEL-2 melanoma = system: SK-MEL-2 melanoma
CAKI-1 renal = system: CAKI-1 renal
CCRF-CEM leukemia = system: CCRF-CEM leukemia
HCT-116 colon = system: HCT-116 colon
HT29 colon = system: HT29 colon
PC-3 prostate = system: PC-3 prostate
ACHN renal = system: ACHN renal
UACC-62 melanoma = system: UACC-62 melanoma
UO-31 renal = system: UO-31 renal
MDA-MB-231 breast = system: MDA-MB-231 breast
K-562 leukemia = system: K-562 leukemia
NCI-H23 lung = system: NCI-H23 lung
A498 renal = system: A498 renal
HL-60(TB) leukemia = system: HL-60(TB) leukemia
RXF 393 renal = system: RXF 393 renal
EKVX NSCLC = system: EKVX NSCLC
786-0 renal = system: 786-0 renal
HCC-2998 colon = system: HCC-2998 colon
UACC-257 melanoma = system: UACC-257 melanoma
SF-268 CNS = system: SF-268 CNS
MOLT-4 leukemia = system: MOLT-4 leukemia
SK-OV-3 ovarian = system: SK-OV-3 ovarian
SN12C renal = system: SN12C renal
SF-539 CNS = system: SF-539 CNS
OVCAR-8 ovarian = system: OVCAR-8 ovarian
NCI/ADR-RES ovarian = system: NCI/ADR-RES ovarian
IGROV1 ovarian = system: IGROV1 ovarian
TK-10 renal = system: TK-10 renal
OVCAR-4 ovarian = system: OVCAR-4 ovarian
MDA-MB-435 = system: MDA-MB-435
OVCAR-5 ovarian = system: OVCAR-5 ovarian
SF-295 CNS = system: SF-295 CNS
COLO 205 colon = system: COLO 205 colon
BT-549 breast = system: BT-549 breast
MDA-N = system: MDA-N
OVCAR-3 ovarian = system: OVCAR-3 ovarian
MALME-3M melanoma = system: MALME-3M melanoma
KM12 colon = system: KM12 colon
SK-MEL-28 melanoma = system: SK-MEL-28 melanoma
M14 melanoma = system: M14 melanoma
NCI-H522 lung = system: NCI-H522 lung
NCI-H226 lung = system: NCI-H226 lung
HS 578T breast = system: HS 578T breast
HOP-92 NSCLC = system: HOP-92 NSCLC
SK-MEL-5 melanoma = system: SK-MEL-5 melanoma
MCF7 breast = system: MCF7 breast
SW-620 colon = system: SW-620 colon
HOP-62 NSCLC = system: HOP-62 NSCLC
RPMI-8226 leukemia = system: RPMI-8226 leukemia

Q: CNC(C#N)c1ccc(OC)cc1 (stereo not given) was tested. Which TGI (A549 NSCLC) did it give?
A: > 100 µM

Q: What about the TGI (U251 CNS) of the same molecule?
A: > 100 µM

Q: What about the TGI (DU-145 prostate) of the same molecule?
A: > 100 µM

Q: What about the TGI (SNB-19 CNS) of the same molecule?
A: > 100 µM

Q: And the TGI (LOX IMVI melanoma)?
A: > 100 µM

Q: And the TGI (T-47D breast)?
A: > 100 µM

Q: What about the TGI (HCT-15 colon) of the same molecule?
A: > 100 µM

Q: What about the TGI (NCI-H460 lung) of the same molecule?
A: > 100 µM

Q: What about the TGI (SK-MEL-2 melanoma) of the same molecule?
A: > 100 µM

Q: What about the TGI (CAKI-1 renal) of the same molecule?
A: > 100 µM

Q: What about the TGI (CCRF-CEM leukemia) of the same molecule?
A: > 100 µM

Q: What about the TGI (HCT-116 colon) of the same molecule?
A: > 100 µM

Q: What about the TGI (HT29 colon) of the same molecule?
A: > 100 µM

Q: And the TGI (PC-3 prostate)?
A: > 100 µM

Q: And the TGI (ACHN renal)?
A: > 100 µM

Q: And the TGI (UACC-62 melanoma)?
A: > 100 µM

Q: And the TGI (UO-31 renal)?
A: > 100 µM

Q: And the TGI (MDA-MB-231 breast)?
A: > 100 µM

Q: What about the TGI (K-562 leukemia) of the same molecule?
A: > 100 µM

Q: And the TGI (NCI-H23 lung)?
A: > 100 µM

Q: And the TGI (A498 renal)?
A: > 100 µM

Q: What about the TGI (HL-60(TB) leukemia) of the same molecule?
A: > 100 µM

Q: What about the TGI (RXF 393 renal) of the same molecule?
A: > 100 µM

Q: And the TGI (EKVX NSCLC)?
A: > 100 µM

Q: And the TGI (786-0 renal)?
A: > 100 µM

Q: What about the TGI (HCC-2998 colon) of the same molecule?
A: > 100 µM

Q: And the TGI (UACC-257 melanoma)?
A: > 100 µM

Q: What about the TGI (SF-268 CNS) of the same molecule?
A: > 100 µM

Q: What about the TGI (MOLT-4 leukemia) of the same molecule?
A: > 100 µM

Q: And the TGI (SK-OV-3 ovarian)?
A: > 100 µM

Q: And the TGI (SN12C renal)?
A: > 100 µM

Q: What about the TGI (SF-539 CNS) of the same molecule?
A: > 100 µM

Q: What about the TGI (OVCAR-8 ovarian) of the same molecule?
A: > 100 µM

Q: What about the TGI (NCI/ADR-RES ovarian) of the same molecule?
A: > 100 µM

Q: What about the TGI (IGROV1 ovarian) of the same molecule?
A: > 100 µM

Q: What about the TGI (TK-10 renal) of the same molecule?
A: > 100 µM

Q: What about the TGI (OVCAR-4 ovarian) of the same molecule?
A: > 100 µM

Q: What about the TGI (MDA-MB-435) of the same molecule?
A: > 100 µM

Q: What about the TGI (OVCAR-5 ovarian) of the same molecule?
A: > 100 µM

Q: And the TGI (SF-295 CNS)?
A: > 100 µM

Q: And the TGI (COLO 205 colon)?
A: > 100 µM

Q: And the TGI (BT-549 breast)?
A: > 100 µM

Q: What about the TGI (MDA-N) of the same molecule?
A: > 100 µM

Q: What about the TGI (OVCAR-3 ovarian) of the same molecule?
A: > 100 µM

Q: What about the TGI (MALME-3M melanoma) of the same molecule?
A: > 100 µM

Q: And the TGI (KM12 colon)?
A: > 100 µM

Q: And the TGI (SK-MEL-28 melanoma)?
A: > 100 µM

Q: What about the TGI (M14 melanoma) of the same molecule?
A: > 100 µM

Q: And the TGI (NCI-H522 lung)?
A: > 100 µM

Q: What about the TGI (NCI-H226 lung) of the same molecule?
A: > 100 µM

Q: And the TGI (HS 578T breast)?
A: > 100 µM

Q: What about the TGI (HOP-92 NSCLC) of the same molecule?
A: > 100 µM

Q: And the TGI (SK-MEL-5 melanoma)?
A: > 100 µM

Q: What about the TGI (MCF7 breast) of the same molecule?
A: > 100 µM

Q: And the TGI (SW-620 colon)?
A: > 100 µM

Q: Which TGI (A549 NSCLC) does the source give for NC(=O)NC1C(c2ccccc2)=C1c1ccccc1 here?
A: 74.6 µM

Q: What about the TGI (U251 CNS) of the same molecule?
A: 32.7 µM

Q: And the TGI (DU-145 prostate)?
A: > 100 µM

Q: And the TGI (SNB-19 CNS)?
A: > 100 µM

Q: What about the TGI (LOX IMVI melanoma) of the same molecule?
A: 38.4 µM

Q: And the TGI (T-47D breast)?
A: > 100 µM

Q: What about the TGI (HCT-15 colon) of the same molecule?
A: 32.4 µM

Q: What about the TGI (HOP-62 NSCLC) of the same molecule?
A: > 100 µM

Q: What about the TGI (NCI-H460 lung) of the same molecule?
A: 36 µM

Q: And the TGI (CAKI-1 renal)?
A: > 100 µM

Q: And the TGI (CCRF-CEM leukemia)?
A: > 100 µM

Q: What about the TGI (HCT-116 colon) of the same molecule?
A: 38.7 µM

Q: And the TGI (HT29 colon)?
A: 46.1 µM

Q: What about the TGI (PC-3 prostate) of the same molecule?
A: 39.4 µM

Q: What about the TGI (ACHN renal) of the same molecule?
A: 31.2 µM

Q: And the TGI (UACC-62 melanoma)?
A: 23.4 µM

Q: What about the TGI (UO-31 renal) of the same molecule?
A: 28.8 µM

Q: What about the TGI (MDA-MB-231 breast) of the same molecule?
A: 38.2 µM

Q: What about the TGI (K-562 leukemia) of the same molecule?
A: 43.1 µM

Q: What about the TGI (NCI-H23 lung) of the same molecule?
A: 61.4 µM

Q: What about the TGI (A498 renal) of the same molecule?
A: 39.9 µM

Q: What about the TGI (HL-60(TB) leukemia) of the same molecule?
A: 68.3 µM

Q: What about the TGI (RXF 393 renal) of the same molecule?
A: 14.8 µM

Q: What about the TGI (EKVX NSCLC) of the same molecule?
A: 60 µM

Q: What about the TGI (786-0 renal) of the same molecule?
A: 73.8 µM

Q: And the TGI (HCC-2998 colon)?
A: 35.8 µM

Q: And the TGI (UACC-257 melanoma)?
A: 38.4 µM

Q: What about the TGI (SF-268 CNS) of the same molecule?
A: 32 µM

Q: And the TGI (MOLT-4 leukemia)?
A: 17.7 µM

Q: And the TGI (RPMI-8226 leukemia)?
A: 45.4 µM

Q: What about the TGI (SK-OV-3 ovarian) of the same molecule?
A: 38.2 µM

Q: And the TGI (SN12C renal)?
A: 35.4 µM

Q: And the TGI (SF-539 CNS)?
A: 31.2 µM

Q: And the TGI (OVCAR-8 ovarian)?
A: 25.5 µM

Q: What about the TGI (NCI/ADR-RES ovarian) of the same molecule?
A: 27 µM

Q: And the TGI (IGROV1 ovarian)?
A: 28.4 µM

Q: What about the TGI (TK-10 renal) of the same molecule?
A: 53.7 µM

Q: And the TGI (OVCAR-4 ovarian)?
A: 30.7 µM

Q: And the TGI (MDA-MB-435)?
A: 40.3 µM

Q: And the TGI (OVCAR-5 ovarian)?
A: 64.4 µM

Q: What about the TGI (SF-295 CNS) of the same molecule?
A: 54.6 µM

Q: What about the TGI (COLO 205 colon) of the same molecule?
A: 27.9 µM

Q: What about the TGI (BT-549 breast) of the same molecule?
A: 26.7 µM

Q: What about the TGI (MDA-N) of the same molecule?
A: 34.4 µM

Q: And the TGI (OVCAR-3 ovarian)?
A: 82.9 µM

Q: What about the TGI (MALME-3M melanoma) of the same molecule?
A: 61 µM

Q: What about the TGI (KM12 colon) of the same molecule?
A: 62.2 µM

Q: And the TGI (SK-MEL-28 melanoma)?
A: 33.3 µM

Q: What about the TGI (M14 melanoma) of the same molecule?
A: 39.4 µM

Q: What about the TGI (NCI-H226 lung) of the same molecule?
A: 25.1 µM

Q: What about the TGI (HS 578T breast) of the same molecule?
A: > 100 µM

Q: And the TGI (HOP-92 NSCLC)?
A: 38.1 µM

Q: And the TGI (SK-MEL-5 melanoma)?
A: 23.6 µM

Q: What about the TGI (MCF7 breast) of the same molecule?
A: 33.6 µM

Q: What about the TGI (SW-620 colon) of the same molecule?
A: 37.5 µM
